Results published in patent US8546608B2, “Proteasome inhibitors and methods of using the same” (Cephalon, Inc., priority 2003, dated 2013).

Legend:
[1] = target: T1, proteasome in Molt-4 cells (human leukemia) (Homo sapiens, UniProt P20618+P28074); type: cell-based; conditions: assay of Example E, inhibition of MOLT4; read-out: MOLT4 (EC50)
T1 sequence (P28074 60-263): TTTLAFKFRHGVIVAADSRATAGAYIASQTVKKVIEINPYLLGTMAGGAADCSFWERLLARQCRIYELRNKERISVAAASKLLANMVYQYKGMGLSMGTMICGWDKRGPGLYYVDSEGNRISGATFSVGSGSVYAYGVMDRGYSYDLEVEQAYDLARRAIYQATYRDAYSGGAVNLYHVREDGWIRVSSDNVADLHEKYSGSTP
T1 sequence (P20618 29-241): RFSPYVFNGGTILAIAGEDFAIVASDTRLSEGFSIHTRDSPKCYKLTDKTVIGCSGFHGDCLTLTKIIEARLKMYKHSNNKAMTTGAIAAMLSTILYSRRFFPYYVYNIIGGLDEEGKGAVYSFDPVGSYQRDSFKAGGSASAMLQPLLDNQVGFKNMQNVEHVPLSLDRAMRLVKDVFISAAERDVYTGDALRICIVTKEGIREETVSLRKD
How it was run: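 Intact Molt-4 cells (6×10^6 cells/mL) in HEPES-buffered saline were preincubated with inhibitor 15 min at 37 °C, then given cell-permeable MeOSuc-FLF-AFC at 25 μM final.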

[2] = target: T2, 20S Human Erythrocyte Proteasome (HEP) (Homo sapiens, UniProt P20618+P28074); test: Chymotrypsin-like activity of 20S Human Erythrocyte Proteasome (HEP), IC50 determination; type: biochemical; conditions: assay of Example C, inhibition of HEP
T2 construct: 20S Human Erythrocyte Proteasome (HEP), purchased from Immatics Biotechnologies Inc; purchased Immatics Biotechnologies Inc., Tübingen, Germany; host or cells: human erythrocytes (natural source)
How it was run: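 20S proteasome at 0.2 μg/mL (about 0.6 nM catalytic sites) in 20 mM Tris with 0.04% SDS, preincubated 15 min at 37° C with inhibitor before Suc-LLVY-AMC (100 μM final). AMC fluorescence read in the linear range; triplicates, IC50 from concentration series.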

CC(C)C[C@H](NC(=O)[C@H](CCCNC(=N)N[N+](=O)[O-])NC(=O)CSc1ncccn1)B(O)O [E.2.54, Boronic acid, [(1R)-1-[[(2S)-5-[[imino(nitroamino)methyl]amino]-2-[[2-(pyrimidin-2-ylsulfanyl)acetyl]amino]-1-oxopentyl]amino]-3-methylbutyl]]
EC50 [1]: > 10000 nM
IC50 [2]: < 10 nM

CCc1ccc(OCC(=O)N[C@@H](CCCNC(=N)N[N+](=O)[O-])C(=O)N[C@@H](CC(C)C)B(O)O)cc1 [E.2.55, Boronic acid, [(1R)-1-[[(2S)-5-[[imino(nitroamino)methyl]amino]-2-[[2-(4-ethylphenoxy)acetyl]amino]-1-oxopentyl]amino]-3-methylbutyl]]
EC50 [1]: 2000 to 10000 nM
IC50 [2]: < 10 nM

Cc1ccc(C)c(CC(=O)N[C@@H](CCCNC(=N)N[N+](=O)[O-])C(=O)N[C@@H](CC(C)C)B(O)O)c1 [E.2.56, Boronic acid, [(1R)-1-[[(2S)-5-[[imino(nitroamino)methyl]amino]-2-[[2-(2,5-dimethylphenyl)acetyl]amino]-1-oxopentyl]amino]-3-methylbutyl]]
EC50 [1]: 2000 to 10000 nM
IC50 [2]: < 10 nM

CC(C)C[C@H](NC(=O)[C@H](CCCNC(=N)N[N+](=O)[O-])NC(=O)CCCCCCC(=O)c1ccccc1)B(O)O [E.2.57, Boronic acid, [(1R)-1-[[(2S)-5-[[imino(nitroamino)methyl]amino]-2-[(8-oxo-8-phenyloctanoyl)amino]-1-oxopentyl]amino]-3-methylbutyl]]
EC50 [1]: 2000 to 10000 nM
IC50 [2]: < 10 nM

CC(C)C[C@H](NC(=O)[C@H](CCCNC(=N)N[N+](=O)[O-])NC(=O)CSc1ccc2ccccc2c1)B(O)O [E.2.58, Boronic acid, [(1R)-1-[[(2S)-5-[[imino(nitroamino)methyl]amino]-2-[[2-(2-naphthylsulfanyl)acetyl]amino]-1-oxopentyl]amino]-3-methylbutyl]]
EC50 [1]: 2000 to 10000 nM
IC50 [2]: < 10 nM

Cc1ccc(/C=C/C(=O)N[C@@H](CCCNC(=N)N[N+](=O)[O-])C(=O)N[C@@H](CC(C)C)B(O)O)cc1 [E.2.60, Boronic acid, [(1R)-1-[[(2S)-5-[[imino(nitroamino)methyl]amino]-2-[[3-(4-methylphenyl)acryl]amino]-1-oxopentyl]amino]-3-methylbutyl]]
EC50 [1]: 2000 to 10000 nM
IC50 [2]: < 10 nM

COc1ccc(CCCC(=O)N[C@@H](CCCNC(=N)N[N+](=O)[O-])C(=O)N[C@@H](CC(C)C)B(O)O)cc1 [E.2.61, Boronic acid, [(1R)-1-[[(2S)-5-[[imino(nitroamino)methyl]amino]-2-[[4-(4-methoxyphenyl)-butanoyl]amino]-1-oxopentyl]amino]-3-methylbutyl]]
EC50 [1]: 2000 to 10000 nM
IC50 [2]: < 10 nM

CC(C)C[C@H](NC(=O)[C@H](CCCNC(=N)N[N+](=O)[O-])NC(=O)Cc1ccsc1)B(O)O [E.2.62, Boronic acid, [(1R)-1-[[(2S)-5-[[imino(nitroamino)methyl]amino]-2-[(2-thiophen-3-yl-acetyl)amino]-1-oxopentyl]amino]-3-methylbutyl]]
EC50 [1]: > 10000 nM
IC50 [2]: < 10 nM

CC(C)C[C@H](NC(=O)[C@H](CCCNC(=N)N[N+](=O)[O-])NC(=O)CCCC(=O)c1ccsc1)B(O)O [E.2.64, Boronic acid, [(1R)-1-[[(2S)-5-[[imino(nitroamino)methyl]amino]-2-[[5-oxo-5-(thiophen-3-yl)pentanoyl]amino]-1-oxopentyl]amino]-3-methylbutyl]]
EC50 [1]: > 10000 nM
IC50 [2]: < 10 nM

CC(=O)N[C@@H](CCCNC(=N)N[N+](=O)[O-])C(=O)N[C@@H](CC(C)C)B(O)O [E.2.65, Boronic acid, [(1R)-1-[[(2S)-5-[[imino(nitroamino)methyl]amino]-2-[(acetyl)amino]-1-oxopentyl]amino]-3-methylbutyl]]
EC50 [1]: > 10000 nM
IC50 [2]: < 100 nM

CCSCC(=O)N[C@@H](CCCNC(=N)N[N+](=O)[O-])C(=O)N[C@@H](CC(C)C)B(O)O [E.2.66, Boronic acid, [(1R)-1-[[(2S)-5-[[imino(nitroamino)methyl]amino]-2-[(2-ethylsulfanylacetyl)amino]-1-oxopentyl]amino]-3-methylbutyl]]
EC50 [1]: > 10000 nM
IC50 [2]: < 10 nM

CC(C)C[C@H](NC(=O)[C@H](CCCNC(=N)N[N+](=O)[O-])NC(=O)CCCCCCCCCO)B(O)O [E.2.67, Boronic acid, [(1R)-1-[[(2S)-5-[[imino(nitroamino)methyl]amino]-2-[(10-hydroxydecanoyl)amino]-1-oxopentyl]amino]-3-methylbutyl]]
EC50 [1]: 2000 to 10000 nM
IC50 [2]: < 10 nM

CSCC(=O)N[C@@H](CCCNC(=N)N[N+](=O)[O-])C(=O)N[C@@H](CC(C)C)B(O)O [E.2.68, Boronic acid, [(1R)-1-[[(2S)-5-[[imino(nitroamino)methyl]amino]-2-[(2-methylsulfanylacetyl)amino]-1-oxopentyl]amino]-3-methylbutyl]]
EC50 [1]: > 10000 nM
IC50 [2]: < 10 nM

CC(C)C[C@H](NC(=O)[C@H](CCCNC(=N)N[N+](=O)[O-])NC(=O)CCS(=O)(=O)c1ccccc1)B(O)O [E.2.70, Boronic acid, [(1R)-1-[[(2S)-5-[[imino(nitroamino)methyl]amino]-2-[[3-(benzenesulfonyl)propanoyl]amino]-1-oxopentyl]amino]-3-methylbutyl]]
EC50 [1]: > 10000 nM
IC50 [2]: < 10 nM

CC(=O)NCCCCCC(=O)N[C@@H](CCCNC(=N)N[N+](=O)[O-])C(=O)N[C@@H](CC(C)C)B(O)O [E.2.75, Boronic acid, [(1R)-1-[[(2S)-5-[[imino(nitroamino)methyl]amino]-2-[[6-(acetylamino)hexanoyl]amino]-1-oxopentyl]amino]-3-methylbutyl]]
EC50 [1]: > 10000 nM
IC50 [2]: < 10 nM

CC(C)C[C@H](NC(=O)[C@H](CCCNC(=N)N[N+](=O)[O-])NC(=O)COc1ccc(Br)cc1)B(O)O [E.2.77, Boronic acid, [(1R)-1-[[(2S)-5-[[imino(nitroamino)methyl]amino]-2-[[2-(4-bromophenoxy)acetyl]amino]-1-oxopentyl]amino]-3-methylbutyl]]
EC50 [1]: 2000 to 10000 nM
IC50 [2]: < 10 nM

CCc1ccc(CCC(=O)N[C@@H](CCCNC(=N)N[N+](=O)[O-])C(=O)N[C@@H](CC(C)C)B(O)O)cc1 [E.2.78, Boronic acid, [(1R)-1-[[(2S)-5-[[imino(nitroamino)methyl]amino]-2-[[3-(4-ethylphenyl)propanoyl]amino]-1-oxopentyl]amino]-3-methylbutyl]]
EC50 [1]: 2000 to 10000 nM
IC50 [2]: < 10 nM

CCCCCCCOc1ccc(NC(=O)N[C@@H](CCCNC(=N)N[N+](=O)[O-])C(=O)N[C@@H](CC(C)C)B(O)O)cc1 [E.2.79, Boronic acid, [(1R)-1-[[(2S)-5-[[imino(nitroamino)methyl]amino]-2-[3-[4-(heptyloxy)phenyl]-ureido]-1-oxopentyl]amino]-3-methylbutyl]]
EC50 [1]: 200 to 2000 nM
IC50 [2]: < 10 nM

CC(=O)CCCC(=O)N[C@@H](CCCNC(=N)N[N+](=O)[O-])C(=O)N[C@@H](CC(C)C)B(O)O [E.2.80, Boronic acid, [(1R)-1-[[(2S)-5-[[imino(nitroamino)methyl]amino]-2-[(5-oxohexanoyl)amino]-1-oxopentyl]amino]-3-methylbutyl]]
EC50 [1]: 2000 to 10000 nM
IC50 [2]: < 100 nM

CCCCc1ccc(C(=O)N[C@H](C(=O)N[C@@H](CC(C)C)B(O)O)[C@@H](C)O)cc1 [E.3, Boronic Acid, [(1R)-1-[[(2S,3R)-3-hydroxy-2-[(4-butylbenzoyl)amino]-1-oxobutyl]amino]-3-methylbutyl]]
EC50 [1]: < 200 nM
IC50 [2]: < 10 nM

CC(C)C[C@H](NC(=O)[C@@H](NC(=O)c1ccc2ccccc2c1)[C@@H](C)O)B(O)O [E.3.1, Boronic acid, [(1R)-1-[[(2S,3R)-3-hydroxy-2-[(2-naphthoyl)amino]-1-oxobutyl]amino]-3-methylbutyl]]
EC50 [1]: < 200 nM
IC50 [2]: < 10 nM

Cc1ccc(OCC(=O)N[C@H](C(=O)N[C@@H](CC(C)C)B(O)O)[C@@H](C)O)cc1 [E.3.2]
EC50 [1]: < 200 nM
IC50 [2]: < 10 nM

CC(C)C[C@H](NC(=O)[C@@H](NS(=O)(=O)c1ccc2ccccc2c1)[C@@H](C)O)B(O)O [E.3.4, Boronic acid, [(1R)-1-[[(2S,3R)-3-hydroxy-2-[(naphthalene-2-sulfonyl)amino]-1-oxobutyl]amino]-3-methylbutyl]]
EC50 [1]: < 200 nM
IC50 [2]: < 100 nM

CCCCCCCCC(C)(C)C(=O)N[C@H](C(=O)N[C@@H](CC(C)C)B(O)O)[C@@H](C)O [E.3.6, Boronic acid, [(1R)-1-[[(2S,3R)-3-hydroxy-2-[(2,2 dimethyl-decanoyl)amino]-1-oxobutyl]amino]-3-methylbutyl]]
EC50 [1]: < 200 nM
IC50 [2]: < 10 nM

CC(C)C[C@H](NC(=O)[C@@H](NC(=O)c1ccc(Oc2ccccc2)cc1)[C@@H](C)O)B(O)O [E.3.7, Boronic acid, [(1R)-1-[[(2S,3R)-3-hydroxy-2-[(4-Phenoxybenzoyl)amino]-1-oxobutyl]amino]-3-methylbutyl]]
EC50 [1]: < 200 nM
IC50 [2]: < 10 nM

CCCOc1ccc(C(=O)N[C@H](C(=O)N[C@@H](CC(C)C)B(O)O)[C@@H](C)O)cc1 [E.3.8]
EC50 [1]: < 200 nM
IC50 [2]: < 10 nM
